Source: patent publication EP0374267A1, “DERIVATIVES OF PLATINUM (P) WITH A POLYANION OF DEOXYRIBONUCLEIC ACID, METHOD FOR OBTAINING THEM AND PHARMACEUTICAL ANTITUMOR PREPARATION BASED ON THEM” (priority 1988, dated 1989)

Experiments:
Shvetz-Erythromyelose = test: Antineoplastic activity against transplanted Shvetz erythromyelosis in rats; assay type: in vivo, weissen rassenlosen Ratten; details: for Grad der Hemmung des Wachstums eines Tumors: i.p. 3x at 24 h intervals from day 4-6 after inoculation, dose I 17.1, II 17,1-27,3, III 27,3, CDDP 8,1, DNS 18,0 mg/kg
Description: Die erfindungsgemässen Verbindung weisen antineonlastische Aktivität in Verbindung mit einer immunomudulierenden Wirkung auf. Die beanspruchten Verbindungen und das erfindungsgemässe Arzneipräparat mit antineoplastischer Wirkung wurden in Versuchen an Tieren und in Kliniken an Menschen untersucht. Untersucht wurde ihre antineoplastische Aktivität gegenüber der überimnften Shvetz-Erythromyelose Die antineoplastische Aktivität jedes der angemeldeten Stoffe bewertete man nach den Ergebnissen der Versuche, die an weissen rassenlosen Ratten mit einem Gewicht von 150 bis 200 g (in Gruppen zu je 10 Tieren) angestellt wurden. Den Tieren wurden 2.10^8 - 2.10^10 Zellen des überimpften Stammes der Shvetz-Erythromyelose subkutan in die Hüfte inokuliert. Am 4. bis 6. Tag nach der Inokulation der Tumorzellen, das heisst in der Periode der logarythmischen Phase des Wachstums eines Tumors, begann man, den Tieren die erfindungsgemässen Verbindungen einzuführen. Die angemeldeten Verbindungen wurden intraperitoneal dreimal mit einem Zeitabstand von 24 stunden in Form von wässerigen Lösungen beziehungsweise wässerigen Suspensionen eingeführt.
Antineoplastische Wirkung der erfindung sgemässen Verbindungen wurde im Vergleich zur Kontrolle (ohne Anwendung der Präparate) und im Vergleich zu den CDDP- und DNS-Präparaten untersucht.
Die antineoplastische Aktivität bewertete man nach folgenden biologischen Kenndaten: Grad der Hemmung des Wachstums eines Tumors, der Uberlebenskraft von Tieren am 10. Tag nach der Inokulation vom Tumorzellen sowie der Lebensdauer von Tieren.

humorale Immunität = test: Humoral immunity in tumour-bearing rats immunised with sheep erythrocytes; assay type: in vivo, Ratten der Wistar-Linie; details: treated tumour bearers, 4 days after immunisation
Description: Der Einfluss auf die homorale Immunität (Antiteloge- nese)- bewertete man nach der Menge von antikörperbildenden Zellen in der Milz und nach dem Titer von Agglutininen und Hämolysinen im Blütserum.
Der Einfluss der beansprucheen Stoffe auf die humorale Immunität wurde auch im Vergleich zum CDDP und zur DNS untersucht. Dafür wurden Ratten,Tumorträger der Shvetz-Erythromyelose der Wistar-Linie eingesetzt, denen man ein Tumor subkutan in die Hüfte überimpfte. Am 4. Tag nach der Uberimpfung des Tumors begann man ihre Behandlung nach dem gleichen Schema wie auch bei der Untersuchung der zellulären Immunität. Am 8. Tag nach der Uberimpfung des Tumors führte man die Immunisierung der Tiere durch, indem man ihnen intraperitoneal Hammelerythrozyte in einer Dosis von 2.10^6 Zellen einführt. In 4. Tagen nach der Immunisierung tötete man die Tiere mittels Dekapitation unter Anwendung von Athernarkose und man ermittelte den Gehalt an antikörperbildenden Zellen in der Milz nach der Erne-Methode und die Agglutinine- und Hämolysine-Titer im periphärischen Blut mit bekanntnn Methoden.
Der Gehalt an antikörperbildenden Zellen ermittelte man, berechnet auf I0^6 Splenozyte und auf die Gesamtmasse der Milz. Dee Versuchergebnisse sind in der Tabelle 4 angeführt.

[1] = Antibody (agglutinin) titre in serum of intact mice immunised with sheep erythrocytes; assay type: in vivo, Mäuse-Linien CBA und C57Bl6
Description: Der Einfluss der beanspruchten Stoffe auf die Antitelogenese wurde auch an zwei gegensätzlich auf Hammelerythrozyte reagierenden Mäuse-Linien: CBA und C57Bl6 untersucht. Man verwendete Tiere mit einem Gewicht von 20+2 g, die einer Quarantäne innerhalb von mindestens 20 Tagen ausgesetzt wurden. […] In einer Stunde wurden die Tiere immunisiert, indem man ihnen intraperitoneal I0^8 Zellen der Hammelerythrozyte einführt..Am 7., 14. und 30. Tag tötete man die Tiere und ermittelte man den Gehalt an Agglutininen im Blutserum in an sich bekannter Weise. Die Ergebnisse wurden in Form lg2 der Antikörper-Titer ausgedrückt. Die Ergebnisse sind in der Tabelle 5 angeführt.

[2] = test system: antikörperbildenden Zellen in der Milz; test: Antibody-forming cells in the spleen of mice immunised with sheep erythrocytes; assay type: in vivo, Mäusen der CBA-Linien und C57Bl6-Linie; details: CBA and C57Bl6 mice, day 4; CDDP 8,1, DNS 6,0, compounds 13,6 mg/kg i.p.; numeric Table 6 is an image
Description: Es wurden Untersuchungen des Einflusses der bean - spruchten Stoffe im Vergleich zu den CDDP- und DNS-Präparaten auf die Bildung von antikörperbildenden Zellen in der Milz von zwei gegensätzlich auf die Hammelerythrozyte reagierenden Mäuse-Linien durchgeführt.
In I Stunde wurden die Tiere immunisiert, indem man ihnen intraperitoneal […] Zellen der Hammelerythrozyte einführte . Am 4. Tag ermittelte man die Anzahl der antikörperbildenden Zellen in der Milz der Tiere der Versuchs-und der Kontrollgruppe (ohne Einführung des Präparats). Der Gehalt an antikörperbildenden Zellen berechnete man auf […] Splenozyte und auf die ganze Milz. Die Ergebnisse der Untersuchungen sind in der Tagelle 6 dargestellt.

[3] = CDDP in combination with Vinblastin, Bleomycin, Aktinomycin und Prednisolon; cited from earlier work
[4] = Acute toxicity, intraperitoneal, rats and mice (with histology of kidney and gut); assay type: in vivo, weissen rassenlosen Ratten; weissen nichtlinearen Mäusen; details: i.p. 3x at 2 h intervals, total dose
Description: Die Anzahl der krepierten Tiere in jeder Gruppe wurde alle 21 bis 48 Stunden registriert. In jeder Gruppe waren je 12 Tiere (6 Männchen und 6 Weibchen), die Versuche wurden zweimal wiederholt. Die Ergebnisse der Versuche sind in der Tabelle 2 angeführt.
Die krepierten Tiere wurden obduziert und man führte hystologische Untersuchungen der Nieren und des Darmes durch. Die Tiere, die die beanspruchten Stoffe in einer unter der toxischen Dosis liegenden Menge verabreicht bekamen, wurden in I4 Tagen getötet. Die inneren Organe derselben wurden der Autopsie ausgesetzt.

zelluläre Immunität = test: Cellular immunity: rejection time of a skin allograft in tumour-bearing rats; assay type: in vivo, Männchenratten der Wistar-Linie; details: treated tumour bearers; i.p. 3x at 24 h; I 17,1, II 17,1, III 27,3, DNS 12,0, CDDP 8,1 mg/kg
Description: Der Einfluss auf die zelluläre Immunität bewertete man nach der Zeit der Abstossung eines Allotransplantats der Haut eines Tumorträgers.
Der Einfluss der beanspruchten Stoffe auf die zelluläre Immunität wurde an Männchenratten der Wistar-Linie mit einem Gewicht von 150 bis 200 g untersucht. Den Tieren wurde ein Hautlappen mit Abmessungen 2 x 3 cm^2 von den Ratten der August-Linie in die Rückengegend transplantiert. Dann wurden denselben Tieren subkutan 2.10^8 Zellen der Shvetz-Erythromyelose in die Hüfte inokuliert. Am 4. bis 6. […] Zum Vergleich verwendete man die DNS- und CDDP-Präparate, die amn in einer Salz-lösung nach dem gleichen'Schema in Dosen von 12,0 und 8,1 mg/kg einführte. Als Kontrolle dienten intakte Tiere. Die Zeit der Abstossung des Hautlappens fixierte man nach der Änderung seiner Temperatur, Farbe und Elastizität.

Solubility = assay type: physicochemical; details: 20°C
[5] = pH of a solution in citrate-salt solution (potentiometric); assay type: physicochemical; details: 0,015 g (II: 0,018 g) in 1000 ml Zitrat-Salz-Lösung, 20°C
Description: Die erfindung sgemässe Verbindung, Poly{hexakis-[Chloroammindiaquaplatin (II)]} - µ - desoxyribonukleat fol- ^gender Formel: [drawing 3] worin n = 1900±90, m = bn,- DNS = (̵C39H49O32N15P4)̵n ..., verliert bei Erhitzung innerhalb von IO Stunden bei einer Temperatur von I80 bis 200°C alle Wassermoleküle. Der Stoff lässt sich schlecht in Wasser, Methanol, Athanol auflösen, er ist nichthygroskopisch. Seine Löslichkeit in wasser bei einer Temperatur von 20°C beträgt 0,002%. Eine Lösung von 0,015 g des beanspruchten Stoffes in I000 ml einer Zitrat-Salz-Lösung (0,015 Mol NaCl + 0,0015 Mol Natriumzitrat) bei einer Temperatur von 20°C hat einen pH-Wert von 5,42 (pH- potentiometrisch).

Compound	Uberlebenskraft von Tieren (Shvetz-Erythromyelose; day 10 after inoculation of tumour cells, same doses as E1) [%]	Grad der Hemmung des Wachstums eines Tumors (Shvetz-Erythromyelose) [%]	Gehalt an antikörperbildenden Zellen je 10^6 Splenozyte (humorale Immunität)	lg2 Antikörper-Titer ([1]; Linie der Mäuse C57Bl6, day 7)	Gehalt an antikörperbildenden Zellen in der Milz [2]	Effektivität der Behandlung einer Eierstockgeschwulst [3] [%]	lg2 Antikörper-Titer ([1]; Linie der Mäuse CBA, day 7, single i.p. dose (compounds 13,6, CDDP 8,1, DNS 6,0 mg/kg))	lg2 Antikörper-Titer ([1]; Linie der Mäuse CBA, day 14)	lg2 Antikörper-Titer ([1]; Linie der Mäuse CBA, day 30)	LD50 ([4]; in Lösung)	LD50 ([4]; in Suspension)	Die Zeit der Abstossung (in Tagen) eines Hauptlappens (zelluläre Immunität)	Löslichkeit in Wasser (Solubility)	pH-Wert [5]	increase of Uberlebenskraft von Tieren compared with CDDP (Shvetz-Erythromyelose; versus CDDP) [%]	lg2 Antikörper-Titer ([1]; Linie der Mäuse C57Bl6, day 14)	lg2 Antikörper-Titer ([1]; Linie der Mäuse C57Bl6, day 30)	LDI00 ([4]; in Lösung)	LDI00 ([4]; in Suspension)
N.N.[Cl][Pt][Cl] [CDDP, cis-Dichlorodiaminplatin(II)]	80	78	20,37±2,03	3,80±0,24	senken	100	–	–	–	–	–	–	–	–	–	–	–	–	–
Poly {bis[hydroxochloramminaquaplatin(II)] - tetrakis[chloroammindiaquaplatin(II)] - µ - desoxyribonukleat [Verbindung II]	–	94	–	6,60±0,32	–	–	7,20±0,30	7,60±0,32	6,40±0,42	66,0 mg/kg	66,0 mg/kg	6,5±0,5 Tagen	0,0075%	> 5,38	–	–	–	–	–
Poly{hexakis [chlor- amminaquaplatin(II)]} - µ - desoxyribonukleat [Verbindung III]	–	95	–	–	–	–	–	8,40±0,42	8,50±0,30	–	82,5 mg/kg	6,5±0,5 Tagen	–	5,44	20	6,68±0,29	6,32±0,24	–	–
Poly{hexakis-[Chloroammindiaquaplatin (II)]} - µ - desoxyribonukleat [Verbindung I]	–	84	68,4±9,38	–	–	–	–	–	–	–	–	–	0,002%	5,42	–	6,82±0,38	–	84,0 mg/kg	84,0 mg/kg
